# According to patent US20260224716A1, “PTH ANALOGS FOR THE TREATMENT OF HYPOPARATHYROIDISM” (priority 2020, published 2026):
# What was measured:
# serum calcium [1] = experiment: Serum calcium in rats after single subcutaneous dose (Example 10); assay type: in vivo, Sprague-Dawley rats; details: 30 or 60 nmol/kg SC single dose; increase within the physiological range
# Procedure: A 96-well plate spectrophotometer (SpectraMax M5, Molecular Devices) was employed for detection. Serum Ca and Pi were measured on days 0, 1, 2, 4, 5 and 7. Absorbance (Ab) was measured at 650 nm for Ca and 340 nm for Pi. Manufacturer linearity is provided up to 15 mg/dl for Ca and 10 mg/dl for Pi.
# serum calcium [2] = experiment: Serum calcium in rats, repeat daily dosing 7 days (Example 13); assay type: in vivo, Sprague-Dawley rats; details: daily SC 7 days; SEQ ID NO: 77 20 nmol/kg, SEQ ID NO: 87 20 or 40 nmol/kg; returned to initial values after washout
# Procedure: Female Sprague-Dawley rats were single or double-housed and randomly assigned to four groups (n=5-6 per group) as described in Table 20, and then weighed.
# After the treatment ceased, the animals were monitored on days 9 and 11 (washout period).
# Body weight and food intake were measured on days 0, 1, 3, 5 and 7. Ca was measured on days 0, 1, 2, 3, 4, 7, 9 and 11. Pi was determined on the same samples, except for days 9 and 11.
# [3] = Pharmacokinetics in rats after single subcutaneous dose, LCMS (Example 10); details: rats
# From the text: Female Sprague-Dawley rats were randomly distributed among four groups with five or six rats per group. […] Dose volume was based on body weight and recorded prior to dosing.
# serum calcium [4] = experiment: Serum calcium in parathyroidectomized rats, ten daily doses (Example 16); assay type: in vivo, Sprague-Dawley rats; details: for starting serum calcium concentration: before first dose
# From the text: Rats were randomly distributed among 5 groups and injected subcutaneously for ten consecutive days with either vehicle or SEQ ID NO; 87 (10, 25, 40 nmol/kg; n=8). Two separate vehicle treated groups of rats were studied. The first represented control rats surgically managed like the remaining rats, but their parathyroid gland was not removed (sham control). The second vehicle control group represented rats that were surgically managed in the same manner as the SEQ ID NO: 87 treated rats. Following surgery and one week prior to testing all the rats were placed on a defined diet at a specific calcium concentration.
# A 96-well plate spectrophotometer (SpectraMax M5, Molecular Devices) was employed for detection. […] Absorbance (Ab) was measured at 650 nm wavelength. Manufacturer provided linearity up to 15 mg/dL. The serum calcium was measured immediately prior to injection (time 0 hour), followed by 24, 48, 72, and 96 hours.
compound,measurement,setting,value
CC[C@H](C)[C@H](NC(=O)[C@H](CCC(=O)O)NC(=O)[C@H](CO)NC(=O)[C@@H](NC(=O)[C@H](CO)NC(=O)CN(C)C(=O)[C@H](N)CCCCNC(=O)CC[C@H](NC(=O)COCCOCCNC(=O)COCCOCCNC(=O)CC[C@H](NC(=O)CCCCCCCCCCCCCCCCC(=O)O)C(=O)O)C(=O)O)C(C)C)C(=O)N[C@@H](CCC(N)=O)C(=O)N[C@@H](CC(C)C)C(=O)N[C@@H](CCSC)C(=O)N[C@@H](Cc1c[nH]cn1)C(=O)N[C@@H](CC(N)=O)C(=O)N[C@@H](CC(C)C)C(=O)NCC(=O)N[C@@H](CCCCN)C(=O)N[C@@H](Cc1c[nH]cn1)C(=O)N[C@@H](CC(C)C)C(=O)N[C@@H](CC(N)=O)C(=O)N[C@@H](CO)C(=O)N[C@@H](CCSC)C(=O)N[C@@H](CCC(=O)O)C(=O)N[C@@H](CCCNC(=N)N)C(=O)N[C@H](C(=O)N[C@@H](CCC(=O)O)C(=O)N[C@@H](Cc1c[nH]c2ccccc12)C(=O)N[C@@H](CC(C)C)C(=O)N[C@@H](CCCNC(=N)N)C(=O)N[C@@H](CCCCN)C(=O)N[C@@H](CCCCN)C(=O)N[C@@H](CC(C)C)C(=O)N[C@@H](CCC(N)=O)C(=O)N[C@@H](CC(=O)O)C(=O)N[C@H](C(=O)N[C@@H](Cc1c[nH]cn1)C(=O)N[C@@H](CCCCNC(=O)CC[C@H](NC(=O)COCCOCCNC(=O)COCCOCCNC(=O)CC[C@H](NC(=O)CCCCCCCCCCCCCCCCC(=O)O)C(=O)O)C(=O)O)C(=O)O)C(C)C)C(C)C [SEQ ID NO: 87],time of peak of serum calcium increase,serum calcium [1],3 days
same,Serum Ca levels during the treatment period,serum calcium [2],gradually increased
same,"time of return to baseline value, prodrug",[3]; SEQ ID NO: 87 30 nmol/kg SC,one week
same,tolerability,[3]; doses where prodrug and drug could be measured by LCMS,did not adversely affect the rats
same,serum calcium levels versus sham control,"serum calcium [4]; PTx rats, 10, 25, 40 nmol/kg daily SC, after two days",virtually identical to sham control rats
same,serum calcium levels versus sham control,"serum calcium [4]; PTx rats, mid and high-dose (25, 40 nmol/kg), four and seven days",matched or exceeded what was observed in the sham control rats
same,starting serum calcium concentration,"serum calcium [4]; PTx rats, treatment group 10 nmol/kg",4.5 mg/dL
same,starting serum calcium concentration,"serum calcium [4]; PTx rats, treatment group 25 nmol/kg",5.028 mg/dL
same,starting serum calcium concentration,"serum calcium [4]; PTx rats, treatment group 40 nmol/kg",5.108 mg/dL
same,"starting serum calcium, decreased level versus PTx vehicle",serum calcium [4]; treatment group 10 nmol/kg,3.4%
same,"starting serum calcium, increased level versus PTx vehicle",serum calcium [4]; treatment group 25 nmol/kg,7.9%
same,"starting serum calcium, increased level versus PTx vehicle",serum calcium [4]; treatment group 40 nmol/kg,9.6%
